Source: patent US11331369B2, “Endoparasitic depsipeptides” (Zoetis Services LLC, priority 2017, dated 2022)

What follows are compounds tested on microfilariae of Dirofilaria immitis (assay: Dirofilaria immitis, Microfilaria (DiMF) In vitro Assay). Conditions: 72 h, read-out: DiMF Minimum Effective Dose (MED), approximately 72 hours incubation, microfilariae assessed for survival or paralysis.
Format: cell-based
Work on `CC(C)C[C@H]1C(=O)O[C@H](Cc2ccc(Cn3cc(COc4cccc(C#N)c4)nn3)cc2)C(=O)N(C)[C@@H](CC(C)C)C(=O)O[C@H](C)C(=O)N(C)[C@@H](CC(C)C)C(=O)O[C@H](Cc2ccccc2)C(=O)N(C)[C@@H](CC(C)C)C(=O)O[C@H](C)C(=O)N1C` [Example 10-23, 3-((1-(4-(((2R,5S,8R,11S,14R,17S,20R,23S)-14-benzyl-5,11,17,23-tetraisobutyl-4,8,10,16,20,22-hexamethyl-3,6,9,12,15,18,21,24-octaoxo-1,7,13,19-tetraoxa-4,10,16,22-tetraazacyclotetracosan-2-yl)methyl)benzyl)-1H-1,2,3-triazol-4-yl)methoxy)benzonitrile] yielded a minimal effective concentration of 0.01 to 0.1 µM. `CCc1nn(Cc2ccc(C[C@H]3OC(=O)[C@H](CC(C)C)N(C)C(=O)[C@@H](C)OC(=O)[C@H](CC(C)C)N(C)C(=O)[C@@H](Cc4ccc(Cn5nc(CC)c(N)c5CC)cc4)OC(=O)[C@H](CC(C)C)N(C)C(=O)[C@@H](C)OC(=O)[C@H](CC(C)C)N(C)C3=O)cc2)c(CC)c1N` [Example 1b-133, (3S,6R,9S,12R,15S,18R,21S,24R)-6,18-bis(4-((4-amino-3,5-diethyl-1H-pyrazol-1-yl)methyl)benzyl)-3,9,15,21-tetraisobutyl-4,10,12,16,22,24-hexamethyl-1,7,13,19-tetraoxa-4,10,16,22-tetraazacyclotetracosan-2,5,8,11,14,17,20,23-octaone] was tested, and the minimal effective concentration was 0.01 to 0.1 µM. For `CCOc1cc(C)nn1Cc1ccc(C[C@H]2OC(=O)[C@H](CC(C)C)N(C)C(=O)[C@@H](C)OC(=O)[C@H](CC(C)C)N(C)C(=O)[C@@H](Cc3ccc(Cn4nc(C)cc4OCC)cc3)OC(=O)[C@H](CC(C)C)N(C)C(=O)[C@@H](C)OC(=O)[C@H](CC(C)C)N(C)C2=O)cc1` [Example 1b-163, (3S,6R,9S,12R,15S,18R,21S,24R)-6,18-bis(4-((5-ethoxy-3-methyl-1H-pyrazol-1-yl)methyl)benzyl)-3,9,15,21-tetraisobutyl-4,10,12,16,22,24-hexamethyl-1,7,13,19-tetraoxa-4,10,16,22-tetraazacyclotetracosan-2,5,8,11,14,17,20,23-octaone], the minimal effective concentration was 0.01 to 0.1 µM. Work on `CC(C)C[C@H]1C(=O)O[C@H](Cc2ccc(Cn3ccnc3C(C)C)cc2)C(=O)N(C)[C@@H](CC(C)C)C(=O)O[C@H](C)C(=O)N(C)[C@@H](CC(C)C)C(=O)O[C@H](Cc2ccc(Cn3ccnc3C(C)C)cc2)C(=O)N(C)[C@@H](CC(C)C)C(=O)O[C@H](C)C(=O)N1C` [Example 6-8, (3S,6R,9S,12R,15S,18R,21S,24R)-3,9,15,21-tetraisobutyl-6,18-bis(4-((2-isopropyl-1H-imidazol-1-yl)methyl)benzyl)-4,10,12,16,22,24-hexamethyl-1,7,13,19-tetraoxa-4,10,16,22-tetraazacyclotetracosan-2,5,8,11,14,17,20,23-octaone] yielded a minimal effective concentration of 0.01 to 0.1 µM. In the case of `CC(C)C[C@H]1C(=O)O[C@H](Cc2ccc(Cn3cc(C4CCCC4)cn3)cc2)C(=O)N(C)[C@@H](CC(C)C)C(=O)O[C@H](C)C(=O)N(C)[C@@H](CC(C)C)C(=O)O[C@H](Cc2ccccc2)C(=O)N(C)[C@@H](CC(C)C)C(=O)O[C@H](C)C(=O)N1C` [Example 2-38, (3S,6R,9S,12R,15S,18R,21S,24R)-6-benzyl-18-(4-((4-cyclopentyl-1H-pyrazol-1-yl)methyl)benzyl)-3,9,15,21-tetraisobutyl-4,10,12,16,22,24-hexamethyl-1,7,13,19-tetraoxa-4,10,16,22-tetraazacyclotetracosan-2,5,8,11,14,17,20,23-octaone], the minimal effective concentration is reported as 0.01 to 0.1 µM. `CCc1nn(Cc2ccc(C[C@H]3OC(=O)[C@H](CC(C)C)N(C)C(=O)[C@@H](C)OC(=O)[C@H](CC(C)C)N(C)C(=O)[C@@H](Cc4ccccc4)OC(=O)[C@H](CC(C)C)N(C)C(=O)[C@@H](C)OC(=O)[C@H](CC(C)C)N(C)C3=O)cc2)c(CC)c1N` [Example 2-86, (3S,6R,9S,12R,15S,18R,21S,24R)-6-(4-((4-amino-3,5-diethyl-1H-pyrazol-1-yl)methyl)benzyl)-18-benzyl-3,9,15,21-tetraisobutyl-4,10,12,16,22,24-hexamethyl-1,7,13,19-tetraoxa-4,10,16,22-tetraazacyclotetracosan-2,5,8,11,14,17,20,23-octaone] gave a minimal effective concentration of 0.01 to 0.1 µM. `CC(C)C[C@H]1C(=O)O[C@H](Cc2ccc(Cn3nc(C4CC4)cc3C3CC3)cc2)C(=O)N(C)[C@@H](CC(C)C)C(=O)O[C@H](C)C(=O)N(C)[C@@H](CC(C)C)C(=O)O[C@H](Cc2ccc(Cn3nc(-c4ccco4)cc3CO)cc2)C(=O)N(C)[C@@H](CC(C)C)C(=O)O[C@H](C)C(=O)N1C` [Example 1a-6, (3S,6R,9S,12R,15S,18R,21S,24R)-6-(4-((3,5-dicyclopropyl-1H-pyrazol-1-yl)methyl)benzyl)-18-(4-((3-(furan-2-yl)-5-(hydroxymethyl)-1H-pyrazol-1-yl)methyl)benzyl)-3,9,15,21-tetraisobutyl-4,10,12,16,22,24-hexamethyl-1,7,13,19-tetraoxa-4,10,16,22-tetraazacyclotetracosan-2,5,8,11,14,17,20,23-octaone] showed a minimal effective concentration of 0.01 to 0.1 µM. `CCCc1cnn(Cc2ccc(C[C@H]3OC(=O)[C@H](CC(C)C)N(C)C(=O)[C@@H](C)OC(=O)[C@H](CC(C)C)N(C)C(=O)[C@@H](Cc4ccccc4)OC(=O)[C@H](CC(C)C)N(C)C(=O)[C@@H](C)OC(=O)[C@H](CC(C)C)N(C)C3=O)cc2)c1` [Example 2-26, (3S,6R,9S,12R,15S,18R,21S,24R)-6-benzyl-3,9,15,21-tetraisobutyl-4,10,12,16,22,24-hexamethyl-18-(4-((4-propyl-1H-pyrazol-1-yl)methyl)benzyl)-1,7,13,19-tetraoxa-4,10,16,22-tetraazacyclotetracosan-2,5,8,11,14,17,20,23-octaone] was tested, and the minimal effective concentration was 0.01 to 0.1 µM. Work on `Cc1nn(Cc2ccc(C[C@H]3OC(=O)[C@H](CC(C)C)N(C)C(=O)[C@@H](C)OC(=O)[C@H](CC(C)C)N(C)C(=O)[C@@H](Cc4ccccc4)OC(=O)[C@H](CC(C)C)N(C)C(=O)[C@@H](C)OC(=O)[C@H](CC(C)C)N(C)C3=O)cc2)c(C)c1Cl` [Example 2-50, (3S,6R,9S,12R,15S,18R,21S,24R)-6-benzyl-18-(4-((4-chloro-3,5-dimethyl-1H-pyrazol-1-yl)methyl)benzyl)-3,9,15,21-tetraisobutyl-4,10,12,16,22,24-hexamethyl-1,7,13,19-tetraoxa-4,10,16,22-tetraazacyclotetracosan-2,5,8,11,14,17,20,23-octaone] yielded a minimal effective concentration of 0.01 to 0.1 µM. With `CC(C)C[C@H]1C(=O)O[C@H](Cc2ccc(Cn3cc(N4CCCCC4)cn3)cc2)C(=O)N(C)[C@@H](CC(C)C)C(=O)O[C@H](C)C(=O)N(C)[C@@H](CC(C)C)C(=O)O[C@H](Cc2ccc(Cn3cc(N4CCCCC4)cn3)cc2)C(=O)N(C)[C@@H](CC(C)C)C(=O)O[C@H](C)C(=O)N1C` [Example 1b-183, (3S,6R,9S,12R,15S,18R,21S,24R)-3,9,15,21-tetraisobutyl-4,6,10,16,18,22-hexamethyl-12,24-bis(4-((4-(piperidin-1-yl)-1H-pyrazol-1-yl)methyl)benzyl)-1,7,13,19-tetraoxa-4,10,16,22-tetraazacyclotetracosan-2,5,8,11,14,17,20,23-octaone] the minimal effective concentration was 0.01 to 0.1 µM. For `CC(C)C[C@H]1C(=O)O[C@H](Cc2ccc(Cn3cc(-c4cnccn4)cn3)cc2)C(=O)N(C)[C@@H](CC(C)C)C(=O)O[C@H](C)C(=O)N(C)[C@@H](CC(C)C)C(=O)O[C@H](Cc2ccccc2)C(=O)N(C)[C@@H](CC(C)C)C(=O)O[C@H](C)C(=O)N1C` [Example 2-46, (3S,6R,9S,12R,15S,18R,21S,24R)-6-benzyl-3,9,15,21-tetraisobutyl-4,10,12,16,22,24-hexamethyl-18-(4-((4-(pyrazin-2-yl)-1H-pyrazol-1-yl)methyl)benzyl)-1,7,13,19-tetraoxa-4,10,16,22-tetraazacyclotetracosan-2,5,8,11,14,17,20,23-octaone], the minimal effective concentration was 0.001 to 0.01 µM. `CC(C)C[C@H]1C(=O)O[C@H](Cc2ccc(CN3CCN(C(=O)OC(C)(C)C)CC3)cc2)C(=O)N(C)[C@@H](CC(C)C)C(=O)O[C@H](C)C(=O)N(C)[C@@H](CC(C)C)C(=O)O[C@H](Cc2ccccc2)C(=O)N(C)[C@@H](CC(C)C)C(=O)O[C@H](C)C(=O)N1C` [Example 10-9, tert-butyl 4-(4-(((2R,5S,8R,11S,14R,17S,20R,23S)-14-benzyl-5,11,17,23-tetraisobutyl-4,8,10,16,20,22-hexamethyl-3,6,9,12,15,18,21,24-octaoxo-1,7,13,19-tetraoxa-4,10,16,22-tetraazacyclotetracosan-2-yl)methyl)benzyl)piperazine-1-carboxylate] was tested, and the minimal effective concentration was 0.01 to 0.1 µM. Compound `CC(C)C[C@H]1C(=O)O[C@H](Cc2cccc(Cn3cc(O)cn3)c2)C(=O)N(C)[C@@H](CC(C)C)C(=O)O[C@H](C)C(=O)N(C)[C@@H](CC(C)C)C(=O)O[C@H](Cc2cccc(Cn3cc(O)cn3)c2)C(=O)N(C)[C@@H](CC(C)C)C(=O)O[C@H](C)C(=O)N1C` [Example 4-17, (3S,6R,9S,12R,15S,18R,21S,24R)-6,18-bis(3-((4-hydroxy-1H-pyrazol-1-yl)methyl)benzyl)-3,9,15,21-tetraisobutyl-4,10,12,16,22,24-hexamethyl-1,7,13,19-tetraoxa-4,10,16,22-tetraazacyclotetracosan-2,5,8,11,14,17,20,23-octaone] has a minimal effective concentration of 0.01 to 0.1 µM. `Cc1cn(Cc2ccc(C[C@H]3OC(=O)[C@H](CC(C)C)N(C)C(=O)[C@@H](C)OC(=O)[C@H](CC(C)C)N(C)C(=O)[C@@H](Cc4ccccc4)OC(=O)[C@H](CC(C)C)N(C)C(=O)[C@@H](C)OC(=O)[C@H](CC(C)C)N(C)C3=O)cc2)c(C)n1` [Example 8-5, (3S,6R,9S,12R,15S,18R,21S,24R)-6-benzyl-18-(4-((2,4-dimethyl-1H-imidazol-1-yl)methyl)benzyl)-3,9,15,21-tetraisobutyl-4,10,12,16,22,24-hexamethyl-1,7,13,19-tetraoxa-4,10,16,22-tetraazacyclotetracosan-2,5,8,11,14,17,20,23-octaone] gave a minimal effective concentration of 0.01 to 0.1 µM.
